In patent publication US9714266B2, “Estra-1,3,5(10),16-tetraene-3-carboxamides for inhibition of 17β-hydroxysteroid dehydrogenase (AKR1C3)” (priority 2013, dated 2017):
Several values for one entry are separate records, joined by “and”; a condition that tells them apart may be missing. Equal entries are not always repeated.

How the values were obtained:
[1] = target: T1, AKR1C3 (Homo sapiens (Human), UniProt P42330); test: AKR1C3 inhibition in a cell-based system (transfected HEK293 cells, coumberol fluorescence); conditions: HEK293 cells transfected with AKR1C3 expression plasmid; read-out: Cellular AKR1C3 inhibition IC50
Description: The inhibition of AKR1C3 by the substances described in this invention was measured in a cell-based assay using […] as the substrate for the AKR1C3 (Halim, M., Yee, D. J., and Sames, D., J. AM. CHEM. SOC. 130, 14123-14128 (2008) and Yee, D. J., Balsanek, V., Bauman, D. R., Penning, T. M., and Sames, D., Proc. Natl. Acad. Sci. USA 103, 13304-13309 (2006)) (cf. Example 48).
The cell system used was HEK293 cells (ATCC, USA) (cell culture medium: DMEM, 1.5 g of glucose, 10% FCS, PSG). The cells were transfected with an AKR1C3 expression plasmid (pCMV6-AC-AKR1C3, GenBank Accession No. NM_003739.4) overnight (X-tremeGENE HP, Roche). The next morning, the cells were sown into black 96-well culture plates with a cell density of 40 000 cells/well (Greiner Bio-One, Frickenhausen, Germany). 7 h later, the cells were incubated with the test substances (dissolved in 100× concentration in DMSO, final concentration between 10^−11M and 10^−5M) and […] (dissolved in cell culture medium, final concentration 5×10^−6M) overnight. The following morning, the fluorescence of coumberol was measured at 535 nm (excitation at 355 nm) with a suitable measuring instrument (Mithras, from Berthold). […] The data were normalized (transfected cells without inhibitor, only DMSO=0% inhibition; transfected cells, 10 μM EM-1404 inhibitor [F. Labrie et al. U.S. Pat. No. 6,541,463, 2003]=100% inhibition) and IC50 values were calculated by a 4-parameter fit.

[2] = target: T1, AKR1C3; test: AKR1C3 enzyme assay (coumberone reduction, fluorescence); format: biochemical; conditions: recombinant human AKR1C3, coumberone 0.3 μM, NADPH 10 μM; read-out: AKR1C3 enzyme inhibition IC50
Description: The AKR1C3-inhibitory action of the substances of this invention was measured in the AKR1C3 assay described in the paragraphs which follow. Essentially, the enzyme activity is measured by quantifying the coumberol formed from coumberone ([…]., and […]. AM. CHEM. SOC. 130, 14123-14128 (2008) […]., Bauman, D. R., Penning, T. M., and […]., Proc. Natl. Acad. Sci. USA 103, 13304-13309 (2006)). In this assay, the increase in the highly fluorescent coumberol can be determined by NADPH (nicotinamide adenine dinucleotide phosphate)-dependent reduction of the nonfluorescent coumberone by AKR1C3. […] NM_003739). This was expressed as the GST (glutathione S-transferase) fusion protein in E. coli and purified by means of glutathione-Sepharose affinity chromatography. The GST was removed by thrombin digestion with subsequent size exclusion chromatography (Dufort, I., Rheault, P., Huang, X F., Soucy, P., and Luu-The, V., Endocrinology 140, 568-574 (1999)). […] The concentration of the AKR1C3 was matched to the respective activity of the enzyme preparation and set such that the assay worked within the linear range. Typical concentrations were in the region of 1 nM. The reaction was stopped by adding 5 μl of a stop solution consisting of the inhibitor EM-1404 [F. Labrie et al. U.S. Pat. […] Subsequently, the fluorescence of coumberol was measured at 520 nm (excitation at 380 nm) with a suitable measuring instrument (Pherastar from BMG Labtechnologies).

[3] = target: recombinant human AKR1C1 (Homo sapiens (Human), UniProt Q04828); test: AKR1C1 inhibition (NADPH consumption, phenanthrenequinone); format: biochemical
Description: (§1) The AKR1C1/AKR1C2/AKR1C4-inhibitory action of the inventive substances, for determination of the selectivity of this invention, was measured in the assay described in the paragraphs which follow. Essentially, the enzyme activity is measured by the quantification of NADPH (nicotinamide adenine dinucleotide phosphate) consumption in the conversion of phenanthrenequinone (PQ) by the AKR1C enzymes. […] NM_001353.5, NM_001354, NM_001818). This was expressed as the GST (glutathione S-transferase) fusion protein in E. coli and purified by means of glutathione-Sepharose affinity chromatography. The GST was removed by thrombin digestion with subsequent size exclusion chromatography (Dufort, I., Rheault, P., Huang, X F., Soucy, P., and Luu-The, V., Endocrinology 140, 568-574 (1999)). […] The mixture was incubated at 37° C. for 3 h, and the fluorescence was determined at the end of the reaction. […] Typically, the test substances were tested on the same microtitre plate in […] in the range from 10 μM to 1 pM (10 μM, 1 μM, 100 nM, 10 nM, 1 nM, 100 pM, 10 pM, 1 pM). As described, the pharmacological substances claimed were tested for their inhibitory effect on AKR1C enzymes 1, 2 and 4 (see Table 4).

[4] = target: recombinant human AKR1C4 (Homo sapiens (Human), UniProt P17516); test: AKR1C4 inhibition (NADPH consumption, phenanthrenequinone); format: biochemical
Description: as §1

[5] = target: recombinant human AKR1C2 (Homo sapiens (Human), UniProt P52895); test: AKR1C2 inhibition (NADPH consumption, phenanthrenequinone); format: biochemical
Description: as §1

[6] = target: Human CYP17A1 (Homo sapiens (Human), UniProt P05093); test: Inhibition of Cyp17A1 (recombinant enzyme, 3H-progesterone conversion, HPLC); format: biochemical; conditions: for IC50: human CYP17, mean of 3 or 4 independent IC50 values, read-out: IC50 ± SD CYP17
Description: The inhibition of CYP17A1 by the test compounds was evaluated by means of recombinant enzyme. Human CYP17A1 was expressed in E. coli (Ehmer, P. B. et al.; J. Steroid Biochem. Mol. […] After evaporating the organic phase, the steroids were taken up in acetonitrile. 16α-Hydroxyprogesterone, 17α-hydroxyprogesterone and progesterone were separated with acetonitrile/water (45:55) as mobile phase on a C18 reverse phase chromatography column (Nucleodur C18 Gravity, 3 μm, Macherey-Nagel, Düren) in an HPLC System (Agilent 1100 Series, Agilent Technologies, Waldbronn). Detection and quantification of the steroids were conducted by means of a Radioflow detector (Berthold Technologies, Bad Wildbad). The inhibition was calculated by the following formula: [formula] Each value was calculated from at least three independent experiments.

recombinant human AKR1C4, sequence (P17516 whole entry): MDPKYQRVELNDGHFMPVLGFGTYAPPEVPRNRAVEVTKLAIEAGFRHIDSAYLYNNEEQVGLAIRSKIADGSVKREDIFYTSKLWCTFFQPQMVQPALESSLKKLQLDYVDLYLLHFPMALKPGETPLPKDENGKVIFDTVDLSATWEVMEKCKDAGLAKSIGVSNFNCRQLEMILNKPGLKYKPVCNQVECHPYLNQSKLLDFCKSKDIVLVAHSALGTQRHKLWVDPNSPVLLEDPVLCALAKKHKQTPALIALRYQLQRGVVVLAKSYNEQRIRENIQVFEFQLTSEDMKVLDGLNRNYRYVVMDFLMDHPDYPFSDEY
Human CYP17A1, sequence (P05093 whole entry): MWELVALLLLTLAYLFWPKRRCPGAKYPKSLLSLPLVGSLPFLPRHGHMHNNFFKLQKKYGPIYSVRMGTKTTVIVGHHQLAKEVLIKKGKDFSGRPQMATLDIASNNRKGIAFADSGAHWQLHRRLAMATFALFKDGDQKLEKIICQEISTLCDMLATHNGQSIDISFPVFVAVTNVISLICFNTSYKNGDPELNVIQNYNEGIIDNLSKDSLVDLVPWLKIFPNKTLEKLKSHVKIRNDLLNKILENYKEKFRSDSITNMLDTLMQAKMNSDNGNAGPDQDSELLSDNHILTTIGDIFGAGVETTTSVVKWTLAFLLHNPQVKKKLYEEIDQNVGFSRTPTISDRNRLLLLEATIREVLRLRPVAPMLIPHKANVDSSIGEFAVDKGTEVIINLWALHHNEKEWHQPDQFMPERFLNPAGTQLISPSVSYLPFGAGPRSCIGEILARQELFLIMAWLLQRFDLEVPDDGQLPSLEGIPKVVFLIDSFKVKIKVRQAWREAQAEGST
recombinant human AKR1C2, sequence (P52895 whole entry): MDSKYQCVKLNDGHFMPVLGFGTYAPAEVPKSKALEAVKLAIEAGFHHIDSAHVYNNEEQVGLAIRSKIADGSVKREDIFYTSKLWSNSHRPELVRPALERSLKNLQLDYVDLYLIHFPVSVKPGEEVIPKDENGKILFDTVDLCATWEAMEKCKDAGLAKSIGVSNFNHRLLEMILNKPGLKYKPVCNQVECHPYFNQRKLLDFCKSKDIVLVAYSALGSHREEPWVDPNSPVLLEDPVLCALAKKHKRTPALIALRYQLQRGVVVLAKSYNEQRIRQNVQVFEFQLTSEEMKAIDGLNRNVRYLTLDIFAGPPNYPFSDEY
recombinant human AKR1C1, sequence (Q04828 whole entry, the tested form may be a part): as the sequence (P52895 whole entry) above, with V38T, H47R, V54L, S87C, M151V, H170R, L172Q counted along it
T1 sequence (P42330 whole entry): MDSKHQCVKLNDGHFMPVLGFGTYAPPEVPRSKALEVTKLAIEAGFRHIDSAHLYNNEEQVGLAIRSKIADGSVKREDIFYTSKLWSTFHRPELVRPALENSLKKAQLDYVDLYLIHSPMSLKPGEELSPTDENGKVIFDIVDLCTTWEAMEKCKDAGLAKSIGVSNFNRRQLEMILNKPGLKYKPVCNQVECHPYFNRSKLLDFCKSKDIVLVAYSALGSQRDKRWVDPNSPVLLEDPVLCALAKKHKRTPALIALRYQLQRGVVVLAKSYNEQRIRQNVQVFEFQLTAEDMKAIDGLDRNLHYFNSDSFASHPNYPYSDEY

CC(C)[C@H](CO)NC(=O)c1ccc2c(c1)CC[C@@H]1[C@@H]2CC[C@]2(C)C(c3cncc(F)c3)=CC[C@@H]12 [Example 16, 17-(5-fluoropyridin-3-yl)-N—[(R)-1-(hydroxymethyl)-2-methylpropyl]oestra-1,3,5(10),16-tetraene-3-carboxamide]
IC50 [1]: 97 nM and 74 nM
IC50 [2]: 15 nM and 42 nM

C[C@]12CC[C@@H]3c4ccc(C(N)=O)cc4CC[C@H]3[C@@H]1CC=C2c1cccnc1 [Example 1, 17-(pyridin-3-yl)oestra-1,3,5(10),16-tetraene-3-carboxamide]
Inhibition of AKR1C1 (in words) [3]: no inhibition
AKR1C1 enzyme inhibition IC50 ([3]; tested up to 10 μM): no effect
IC50 [1]: 27 nM and 28 nM and 66 nM and 13 nM
IC50 [2]: 5 nM and 6 nM
Inhibition of AKR1C4 (in words) [4]: no inhibition
AKR1C4 enzyme inhibition IC50 ([4]; tested up to 10 μM): no effect
Inhibition of AKR1C2 (in words) [5]: no inhibition
AKR1C2 enzyme inhibition IC50 ([5]; tested up to 10 μM): no effect

C[C@@H](CO)CCNC(=O)c1ccc2c(c1)CC[C@@H]1[C@@H]2CC[C@]2(C)C(c3cncc(F)c3)=CC[C@@H]12 [Example 12, 17-(5-fluoropyridin-3-yl)-N—[(R)-3-(hydroxymethyl)butyl]estra-1,3,5(10),16-tetraene-3-carboxamide]
IC50 [1]: 68 nM and 96 nM and 43 nM and 23 nM
IC50 [2]: 21 nM and 20 nM

C[C@]12CC[C@@H]3c4ccc(C(N)=O)cc4CC[C@H]3[C@@H]1CC=C2c1cncc(F)c1 [Example 4, 17-(5-fluoropyridin-3-yl)oestra-1,3,5(10),16-tetraene-3-carboxamide]
IC50 [2]: 4 nM
IC50 [6]: > 20 µM

O=C1OC(c2ccc(O)cc2)(c2ccc(O)cc2)c2ccccc21 [phenolphthalein]
Inhibition of AKR1C1 (in words) [3]: shows inhibition
IC50 ([3]; tested up to 10 μM, read-out: AKR1C1 enzyme inhibition IC50): 46 nM and 60 nM
Inhibition of AKR1C4 (in words) [4]: shows inhibition
IC50 ([4]; tested up to 10 μM, read-out: AKR1C4 enzyme inhibition IC50): 21 nM and 17 nM
Inhibition of AKR1C2 (in words) [5]: shows inhibition
IC50 ([5]; tested up to 10 μM, read-out: AKR1C2 enzyme inhibition IC50): 554 nM and 438 nM

C[C@]12CC[C@@H]3c4ccc(C(=O)NCC(O)C(F)(F)F)cc4CC[C@H]3[C@@H]1CC=C2c1cncc(F)c1 (mixture of isomers) [Example 20, 17-(5-fluoropyridin-3-yl)-N—[(RS)-3,3,3-trifluoro-2-hydroxypropyl]oestra-1,3,5(10),16-tetraene-3-carboxamide]
IC50 [1]: 32 nM and 42 nM
IC50 [2]: 12 nM and 8 nM and 20 nM and 16 nM
IC50 [6]: > 20 µM

C[C@]12CC[C@H](O)CC1=CC[C@@H]1[C@@H]2CC[C@]2(C)C(c3cccnc3)=CC[C@@H]12 [Abiraterone, reference compound]
Inhibition of Cyp17A1 (in words) ([6]; up to a substance concentration of 20 μM where stated): active
